Results on eight compounds are retold here after patent publication US12590062B2, “PD-1/PD-L1 inhibitors” (Gilead Sciences, Inc., priority 2017, dated 2026).

For test [1], the target named is PD-1/PD-L1 (Homo sapiens, UniProt Q9NZQ7). The test can be described thus: PD-1/PD-L1 biochemical protein-protein interaction assay (ALPHA). Format: binding. As to conditions: 0.3 nM His tagged PD-L1, 2.5 nM biotinylated Fc-PD-1, 60 minutes at 25° C., read-out: IC50 PD-L1-PD-1 Alpha IC50-mono PD-L1-fcP-D1. The method, then:
Biological Activity PD-1/PD-L1 & CTLA/CD80 Biochemical Protein-Protein Interaction Assay
Compounds were tested in biochemical protein-protein interaction assays to determine if they can specifically block the interaction between the extracellular domains of PD-1/PD-L1 or CTLA/CD80. Binding of the protein pairs is measured using a bead based Amplified Luminescent Proximity Homogeneous Assay (ALPHA) platform. Binding of each protein pair results in proximity of the donor and acceptor beads which leads to an increase in ALPHA signal. Disruption of the protein-protein interaction with a test compound results in a decrease in ALPHA signal. Assays are performed in 25 mM Hepes (pH 7.4), 150 mM NaCl, 3.4 mM EDTA, 0.005% Tween 20, and 0.01% BSA. Final protein concentration in the assays were 0.3 nM (His tagged PD-L1), 2.5 nM (biotinylated Fc-PD-1), 1 nM (His tagged CTLA4) and 1 nM (biotinylated CD80). After an assay reaction time of 60 minutes at 25° C., binding was measured with addition of 20 μg/mL ALPHA assay acceptor beads (anti-His coated) and […] ALPHA assay donor beads (streptavidin coated). IC50 values were calculated from the fit of the dose-response curves to a four-parameter equation. Representative data are shown below in Table 1.

Test [2] deals with T1, PD-1/PD-L1 interaction (Homo sapiens, UniProt Q9NZQ7).
T1 construct: expressed in transfected cells; host or cells: CHO cells (aAPC-PD-L1) co-cultured with Jurkat cells overexpressing PD-1 and an NFAT-luciferase reporter
The test can be described thus: PD-1/PD-L1 NFAT reporter co-culture assay. As to conditions: Jurkat PD-1 NFAT-luciferase cells co-cultured with aAPC-PD-L1 CHO cells, 6 hrs at 37° C.; read-out: EC50 NFAT Luciferase. It is filed as cell-based. In short, it runs like this:
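CHO aAPC-PD-L1 seeded overnight; PD-1/NFAT-luc Jurkat + cpd in RPMI 1640, 2% FBS added at once; 6 h, 37 °C; ONE-Glo luminescence; EC50, 4-parameter fit.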

T1 sequence (Q9NZQ7 19-290): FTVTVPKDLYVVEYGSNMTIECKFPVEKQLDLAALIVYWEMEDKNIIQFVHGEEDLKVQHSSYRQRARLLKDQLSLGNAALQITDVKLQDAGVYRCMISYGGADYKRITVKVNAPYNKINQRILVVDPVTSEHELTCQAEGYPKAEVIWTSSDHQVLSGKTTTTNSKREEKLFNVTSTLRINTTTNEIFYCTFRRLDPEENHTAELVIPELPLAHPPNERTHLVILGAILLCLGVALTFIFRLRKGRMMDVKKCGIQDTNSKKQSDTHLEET
PD-1/PD-L1, sequence (Q9NZQ7 19-238 limits assumed): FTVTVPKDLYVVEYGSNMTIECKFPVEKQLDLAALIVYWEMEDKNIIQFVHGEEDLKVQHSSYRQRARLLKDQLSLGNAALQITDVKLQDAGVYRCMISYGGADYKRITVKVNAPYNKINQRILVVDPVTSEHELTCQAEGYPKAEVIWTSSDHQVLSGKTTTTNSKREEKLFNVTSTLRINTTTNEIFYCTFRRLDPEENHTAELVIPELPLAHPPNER

As usually defined, the IC50 is the concentration that inhibits the measured activity by half. Usually EC50 stands for the concentration at which the effect is half-maximal. As to `Cc1c(COc2cc(O)c(CNC[C@@H](O)CC(=O)O)cc2Cl)cccc1-c1cccc(COc2cc(OCc3cncc(C#N)c3)c(CNC[C@@H](O)CC(=O)O)cc2Cl)c1C` [Example 67, (S)-4-((4-((3′-((4-((((S)-3-carboxy-2-hydroxypropyl)amino)methyl)-2-chloro-5-((5-cyanopyridin-3-yl)methoxy)phenoxy)methyl)-2,2′-dimethyl-[1,1′-biphenyl]-3-yl)methoxy)-5-chloro-2-hydroxybenzyl)amino)-3-hydroxybutanoic acid], the 50% inhibitory concentration (IC50) in test [1] stood at 1 nM. Besides, the EC50 in test [2] was determined as 1320 nM.
As to `Cc1c(COc2ccc(CNCCO)cc2)cccc1-c1cccc(COc2cc(OCc3cncc(C#N)c3)c(CNCCO)cc2Cl)c1C` [Example 69, 5-((4-chloro-2-(((2-hydroxyethyl)amino)methyl)-5-((3′-((4-(((2-hydroxyethyl)amino)methyl)phenoxy)methyl)-2,2′-dimethyl-[1,1′-biphenyl]-3-yl)methoxy)phenoxy)methyl)nicotinonitrile], the IC50 in test [1] turned out to be 14.2 nM. In addition, in test [2], the EC50 turned out to be 1740 nM.
In the case of `CC(=O)NCCNCc1cc(Cl)c(OCc2cccc(-c3cccc(COc4cc(OCc5cncc(C#N)c5)c(CNCCNC(C)=O)cc4Cl)c3C)c2C)cc1OCc1cncc(C#N)c1` [Example 70, N,N′-(((((((2,2′-dimethyl-[1,1′-biphenyl]-3,3′-diyl)bis(methylene))bis(oxy))bis(5-chloro-2-((5-cyanopyridin-3-yl)methoxy)-4,1-phenylene))bis(methylene))bis(azanediyl))bis(ethane-2,1-diyl))diacetamide], the concentration for half-maximal inhibition (IC50) in test [1] worked out at 10.6 nM. For the same compound, in test [2], the EC50 was found to be 902 nM.
On the same counts, the results for `Cc1c(COc2ccc(CNCCO)cc2Cl)cccc1-c1cccc(COc2cc(OCc3cncc(C#N)c3)c(CNCCO)cc2Cl)c1C` [Example 71, 5-((4-chloro-5-((3′-((2-chloro-4-(((2-hydroxyethyl)amino)methyl)phenoxy)methyl)-2,2′-dimethyl-[1,1′-biphenyl]-3-yl)methoxy)-2-(((2-hydroxyethyl)amino)methyl)phenoxy)methyl)nicotinonitrile] are 26.5 nM and 1030 nM.
On the same counts, the results for `COc1nc(OCc2cccc(-c3cccc(COc4ccc(CNCCO)c(OC)n4)c3C#N)c2C)ccc1CNCCO` [Example 72, 3,3′-bis(((5-(((2-hydroxyethyl)amino)methyl)-6-methoxypyridin-2-yl)oxy)methyl)-2′-methyl-[1,1′-biphenyl]-2-carbonitrile] are 8 nM and 2510 nM.
As for `Cc1c(COc2cc(OCc3cncc(C#N)c3)c(CNCCCO)cc2Cl)cccc1-c1cccc(COc2cc(OCc3cncc(C#N)c3)c(CNCCCO)cc2Cl)c1C` [Example 73, 5,5′-((((((2,2′-dimethyl-[1,1′-biphenyl]-3,3′-diyl)bis(methylene))bis(oxy))bis(4-chloro-6-(((3-hydroxypropyl)amino)methyl)-3,1-phenylene))bis(oxy))bis(methylene))dinicotinonitrile], the IC50 in test [1] was found to be 56.1 nM. In addition, the 50% effective concentration (EC50) in test [2] was 2620 nM.
In the same order, the values of `COc1nc(OCc2cccc(-c3cccc(COc4ccc(CNCC(O)C(F)(F)C(=O)O)c(OC)n4)c3C)c2C)ccc1CNCC(O)C(F)(F)C(=O)O` (stereo not shown) [Example 84, 4,4′-((((((2,2′-dimethyl-[1,1′-biphenyl]-3,3′-diyl)bis(methylene))bis(oxy))bis(2-methoxypyridine-6,3-diyl))bis(methylene))bis(azanediyl))bis(2,2-difluoro-3-hydroxybutanoic acid)] are 0.9 nM and 10000 nM.
On to `COc1nc(OCc2cccc(-c3cccc(COc4nc(OC)c(CNC[C@@H](O)CC(=O)O)cc4C)c3C)c2C)c(C)cc1CNC[C@@H](O)CC(=O)O` [Example 119, (3S,3′S)-4,4′-((((((2,2′-dimethyl-[1,1′-biphenyl]-3,3′-diyl)bis(methylene))bis(oxy))bis(2-methoxy-5-methylpyridine-6,3-diyl))bis(methylene))bis(azanediyl))bis(3-hydroxybutanoic acid)], for which the IC50 in test [1] worked out at 0.8 nM. Further, the EC50 in test [2] turned out to be 863 nM.
